Source: ChEMBL document CHEMBL1201862, “PubChem BioAssay data set” (2004)
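How tested: cells in 96-well plates exposed to compound for 48 hours at five concentrations. GI50 is the concentration that inhibits growth by half.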 Calls of active or inactive are those of the source. Rule as the data show it: active = GI50 up to about 1.1 µM and inactive = higher.

Assays:
Assay in all cases: DTP human tumour cell line panel, 48 h
786-0 = system: 786-0
A549 = system: A549
HOP-92 = system: HOP-92
IGROV-1 = system: IGROV-1
K562 = system: K562
LOX IMVI = system: LOX IMVI
M14 = system: M14
MDA-MB-435 = system: MDA-MB-435
Malme-3M = system: Malme-3M
NCI-H226 = system: NCI-H226
NCI-H522 = system: NCI-H522
NCI/ADR-RES = system: NCI/ADR-RES
OVCAR-3 = system: OVCAR-3
OVCAR-8 = system: OVCAR-8
SNB-75 = system: SNB-75
U-251 = system: U-251
UACC-257 = system: UACC-257
UO-31 = system: UO-31
CCRF-CEM = system: CCRF-CEM
A498 = system: A498

SMILES	GI50 (786-0)	GI50 (A549)	GI50 (HOP-92)	GI50 (IGROV-1)	GI50 (K562)	GI50 (LOX IMVI)	GI50 (M14)	GI50 (MDA-MB-435)	GI50 (Malme-3M)	GI50 (NCI-H226)	GI50 (NCI-H522)	GI50 (NCI/ADR-RES)	GI50 (OVCAR-3)	GI50 (OVCAR-8)	GI50 (SNB-75)	GI50 (U-251)	GI50 (UACC-257)	GI50 (UO-31)	GI50 (CCRF-CEM)	GI50 (A498)
O=C(Nc1cccc2cnccc12)c1cc2c(cc1Cl)Sc1nccn1S2(=O)=O	10.9 µM (inactive)	27.7 µM (inactive)	21.4 µM (inactive)	15.8 µM (inactive)	16.2 µM (inactive)	5.65 µM (inactive)	> 100 µM (inactive)	6.76 µM (inactive)	19.1 µM (inactive)	18.4 µM (inactive)	13.1 µM (inactive)	14.4 µM (inactive)	19.9 µM (inactive)	10.3 µM (inactive)	15.5 µM (inactive)	10.4 µM (inactive)	18.1 µM (inactive)	18.6 µM (inactive)	–	–
CC(=O)c1cccc(Nc2nc3ccc(Cl)cc3c3[nH]c4ccccc4c23)c1	1.85 µM (inactive)	2.24 µM (inactive)	3.48 µM (inactive)	4.16 µM (inactive)	1.41 µM (inactive)	–	11 µM (inactive)	7.26 µM (inactive)	4.95 µM (inactive)	–	2.8 µM (inactive)	4.38 µM (inactive)	0.045 µM (active)	5.12 µM (inactive)	–	2.12 µM (inactive)	13.4 µM (inactive)	6.07 µM (inactive)	27.4 µM (inactive)	–
COc1ccc(Cn2c3c(cc(OC(C)=O)c2=O)Cc2ccccc2-3)cc1	5.33 µM (inactive)	13.9 µM (inactive)	9.98 µM (inactive)	7.82 µM (inactive)	11.6 µM (inactive)	6.12 µM (inactive)	6.24 µM (inactive)	11 µM (inactive)	10.9 µM (inactive)	14.3 µM (inactive)	7.01 µM (inactive)	1.81 µM (inactive)	10.7 µM (inactive)	7.64 µM (inactive)	11.7 µM (inactive)	8.65 µM (inactive)	2.28 µM (inactive)	5.56 µM (inactive)	2 µM (inactive)	–
O=C(CCNC(=O)OCc1ccccc1)OCCCNC(=O)OCc1ccccc1	> 100 µM (inactive)	> 100 µM (inactive)	> 100 µM (inactive)	> 100 µM (inactive)	> 100 µM (inactive)	> 100 µM (inactive)	> 100 µM (inactive)	> 100 µM (inactive)	> 100 µM (inactive)	> 100 µM (inactive)	> 100 µM (inactive)	> 100 µM (inactive)	> 100 µM (inactive)	> 100 µM (inactive)	50.8 µM (inactive)	> 100 µM (inactive)	> 100 µM (inactive)	> 100 µM (inactive)	> 100 µM (inactive)	–
C/C1=C\CC[C@@]2(C)O[C@@H]2C[C@@H]2[C@H](C/C(C)=C/CC1)OC(=O)C21CC1	74.5 µM (inactive)	> 100 µM (inactive)	–	23.3 µM (inactive)	21 µM (inactive)	–	> 100 µM (inactive)	41.5 µM (inactive)	> 100 µM (inactive)	–	–	> 100 µM (inactive)	> 100 µM (inactive)	> 100 µM (inactive)	> 100 µM (inactive)	28.8 µM (inactive)	> 100 µM (inactive)	92.3 µM (inactive)	20.6 µM (inactive)	> 100 µM (inactive)
S=C(N1CCN(c2cccc(Cl)c2)CC1)N1CCN(c2cccc(Cl)c2)CC1	33.3 µM (inactive)	68.1 µM (inactive)	–	42.6 µM (inactive)	33 µM (inactive)	–	53.7 µM (inactive)	82 µM (inactive)	21.2 µM (inactive)	22 µM (inactive)	26.9 µM (inactive)	> 100 µM (inactive)	47 µM (inactive)	> 100 µM (inactive)	–	87.3 µM (inactive)	77.3 µM (inactive)	24 µM (inactive)	5.71 µM (inactive)	–
Clc1ccc(-c2ccc(-c3nnc(CCc4nnc(-c5ccc(-c6ccc(Cl)cc6)o5)o4)o3)o2)cc1	> 43.3 µM (inactive)	> 100 µM (inactive)	> 27.5 µM (inactive)	> 71.9 µM (inactive)	7.93 µM (inactive)	> 100 µM (inactive)	> 100 µM (inactive)	> 100 µM (inactive)	–	> 61.7 µM (inactive)	24.8 µM (inactive)	> 100 µM (inactive)	> 100 µM (inactive)	> 91 µM (inactive)	–	17.1 µM (inactive)	> 100 µM (inactive)	> 100 µM (inactive)	2.89 µM (inactive)	30.5 µM (inactive)
